Reference: patent US9873690B2, “3-indol substituted derivatives, pharmaceutical compositions and methods for use” (Pfizer Inc., priority 2015, dated 2018)

Biological target: T1, hTDO2 (Homo sapiens, UniProt P48775)
T1 construct: endogenous in cells; host or cells: A172 human brain glioblastoma cells (ATCC CRL-1620)
Assay: Cellular assay for TDO2 activity determination in A172 cells
Format: cell-based
Conditions: human glioblastoma A172 cells naturally expressing hTDO2; overnight incubation; kynurenine by absorbance at 480 nm
Procedure, shortened: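 A172 glioblastoma cells endogenously expressing hTDO2, 1.25×10^4 cells/well, incubated overnight at 37 °C, 5% CO2 in IMDM with 2% FBS and ten compound concentrations. Supernatant kynurenine measured after TCA treatment and Ehrlich's reagent (4-dimethylaminobenzaldehyde) by absorbance at 480 nm against a kynurenine standard curve, then curve-fitted.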

T1 sequence (P48775 whole entry): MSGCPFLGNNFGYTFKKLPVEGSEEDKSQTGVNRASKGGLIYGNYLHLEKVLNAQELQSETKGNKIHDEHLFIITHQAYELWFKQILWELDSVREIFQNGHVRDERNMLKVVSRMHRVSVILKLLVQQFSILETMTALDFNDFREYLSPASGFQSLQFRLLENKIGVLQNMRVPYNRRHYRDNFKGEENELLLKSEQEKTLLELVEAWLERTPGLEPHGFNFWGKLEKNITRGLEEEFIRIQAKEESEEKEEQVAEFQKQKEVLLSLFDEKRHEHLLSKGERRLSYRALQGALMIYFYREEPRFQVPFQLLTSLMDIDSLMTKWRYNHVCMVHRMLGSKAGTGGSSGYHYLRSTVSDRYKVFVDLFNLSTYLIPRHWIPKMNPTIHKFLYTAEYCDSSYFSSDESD

Compound | IC50 [nM]
CC1c2cc(-c3c[nH]c4cc(F)ccc34)ccc2S(=O)(=O)N1CC(=O)N(C)C (single isomer, unassigned; (+)) [Example 114, (+) 2-(5-(6-fluoro-1H-indol-3-yl)-3-methyl-1,1-dioxidobenzo[d]isothiazol-2(3H)-yl)-N,N-dimethylacetamide] | 239
CNC(=O)C(O)CN1C(C)c2cc(-c3c[nH]c4cc(F)ccc34)ccc2S1(=O)=O (single isomer, unassigned; (-)) [Example 98, (−)-3-(5-(6-fluoro-1H-indol-3-yl)-3-methyl-1,1-dioxidobenzo[d]isothiazol-2(3H)-yl)-2-hydroxy-N-methylpropanamide] | 115
CC1c2cc(-c3c[nH]c4cc(F)ccc34)ccc2S(=O)(=O)N1C[C@@]1(C)CCC(=O)N1 (single isomer, unassigned; (-)) [Example 83] | 152
O=S1(=O)c2ccc(-c3c[nH]c4cc(F)ccc34)cc2CN1[C@H]1CCOC1 [Example 39, (S)-5-(6-fluoro-1H-indol-3-yl)-2-(tetrahydrofuran-3-yl)-2,3-dihydrobenzo[d]isothiazole 1,1-dioxide] | 342
CC1c2cc(-c3c[nH]c4cc(F)ccc34)ccc2S(=O)(=O)N1CC1CCNCC1 (single isomer, unassigned; (+)) [Example 78, (+)-5-(6-fluoro-1H-indol-3-yl)-3-methyl-2-(piperidin-4-ylmethyl)-2,3-dihydrobenzo[d]isothiazole 1,1-dioxide] | 174
CNC(=O)C(O)CN1C(C)c2cc(-c3c[nH]c4cc(F)ccc34)ccc2S1(=O)=O (single isomer, unassigned; (+)) [Example 99, (+)-3-(5-(6-fluoro-1H-indol-3-yl)-3-methyl-1,1-dioxidobenzo[d]isothiazol-2(3H)-yl)-2-hydroxy-N-methylpropanamide] | 180
CCCC1NS(=O)(=O)c2ccc(-c3c[nH]c4cc(F)ccc34)cc21 (single isomer, unassigned; (+)) [Example 6, (+)-5-(6-fluoro-1H-indol-3-yl)-3-propyl-2,3-dihydrobenzo[d]isothiazole 1,1-dioxide] | 367
CN(C)CC1NS(=O)(=O)c2ccc(-c3c[nH]c4cc(F)ccc34)cc21 (single isomer, unassigned; (+)) [Example 26, (+)-3-((dimethylamino)methyl)-5-(6-fluoro-1H-indol-3-yl)-2,3-dihydrobenzo[d]isothiazole 1,1-dioxide] | 437
CC(=O)N1CCC(N2C(C)c3cc(-c4c[nH]c5cc(F)ccc45)ccc3S2(=O)=O)C1 (single isomer, unassigned; (+)) [Example 73, (+)-1-(3-(5-(6-fluoro-1H-indol-3-yl)-3-methyl-1,1-dioxidobenzo[d]isothiazol-2(3H)-yl)pyrrolidin-1-yl)ethanone] | 246
CC(=O)N(C)CC1NS(=O)(=O)c2ccc(-c3c[nH]c4cc(F)ccc34)cc21 (single isomer, unassigned; (-)) [Example 28, (−)-N-((5-(6-fluoro-1H-indol-3-yl)-1,1-dioxido-2,3-dihydrobenzo[d]isothiazol-3-yl)methyl)-N-methylacetamide] | 505
COC(=O)C1NS(=O)(=O)c2ccc(-c3c[nH]c4cc(F)ccc34)cc21 (racemic) [Example 14, methyl 5-(6-fluoro-1H-indol-3-yl)-2,3-dihydrobenzo-[d]isothiazole-3-carboxylate 1,1-dioxide] | 8090
NC(=O)C1NS(=O)(=O)c2ccc(-c3c[nH]c4cc(F)ccc34)cc21 (single isomer, unassigned; (+)) [Example 16, (+)-5-(6-fluoro-1H-indol-3-yl)-2,3-dihydrobenzo[d]-isothiazole-3-carboxamide 1,1-dioxide] | 1380
CC1c2cc(-c3c[nH]c4cc(F)ccc34)ccc2S(=O)(=O)N1C1CCNC(=O)C1 (single isomer, unassigned; (-)) [Example 119, (−)-4-(-5-(6-fluoro-1H-indol-3-yl)-3-methyl-1,1-dioxidobenzo[d]isothiazol-2(3H)-yl)piperidin-2-one] | 390
CC1c2cc(-c3c[nH]c4cc(F)ccc34)ccc2S(=O)(=O)N1CC1CCN(C)CC1 (single isomer, unassigned; (-)) [Example 79, (−)-5-(6-fluoro-1H-indol-3-yl)-3-methyl-2-((1-methylpiperidin-4-yl)methyl)-2,3-dihydrobenzo[d]isothiazole 1,1-dioxide] | 258
CC1c2cc(-c3c[nH]c4cc(F)ccc34)ccc2S(=O)(=O)N1CCc1n[nH]c(=O)o1 (single isomer, unassigned; (-)) [Example 133, (−)-5-(2-(5-(6-fluoro-1H-indol-3-yl)-3-methyl-1,1-dioxidobenzo[d]isothiazol-2(3H)-yl)ethyl)-1,3,4-oxadiazol-2(3H)-one] | 383
C[S+]([O-])CCN1Cc2cc(-c3c[nH]c4cc(F)ccc34)ccc2S1(=O)=O (single isomer, unassigned; (+)) [Example 42, (+)-5-(6-fluoro-1H-indol-3-yl)-2-(2-(methylsulfinyl)ethyl)-2,3-dihydrobenzo[d]isothiazole 1,1-dioxide] | 142
CNC(=O)C1NS(=O)(=O)c2ccc(-c3c[nH]c4cc(F)ccc34)cc21 (single isomer, unassigned; (+)) [Example 18, (+)-5-(6-fluoro-1H-indol-3-yl)-N-methyl-2,3-dihydrobenzo[d]isothiazole-3-carboxamide 1,1-dioxide] | 5000
CNS(=O)(=O)CCN1C(C)c2cc(-c3c[nH]c4cc(F)ccc34)ccc2S1(=O)=O (single isomer, unassigned; (-)) [Example 59, (−)-2-(5-(6-fluoro-1H-indol-3-yl)-3-methyl-1,1-dioxidobenzo[d]isothiazol-2(3H)-yl)-N-methylethane-1-sulfonamide] | 425

Further lines, results first:

IC50 [nM] | Compound
79 | CNC(=O)CN1C(CO)c2cc(-c3c[nH]c4cc(F)ccc34)ccc2S1(=O)=O (single isomer, unassigned; (+)) [Example 128, (+)-2-(5-(6-fluoro-1H-indol-3-yl)-3-(hydroxymethyl)-1,1-dioxidobenzo[d]isothiazol-2(3H)-yl)-N-methylacetamide]
61 | CC(=O)N1CCC(N2C(C)c3cc(-c4c[nH]c5cc(F)ccc45)ccc3S2(=O)=O)C1 (single isomer, unassigned; (-)) [Example 76, (−)-1-(3-(5-(6-fluoro-1H-indol-3-yl)-3-methyl-1,1-dioxidobenzo[d]isothiazol-2(3H)-yl)pyrrolidin-1-yl)ethanone]
92 | CNC(=O)C(C)N1C(C)c2cc(-c3c[nH]c4cc(F)ccc34)ccc2S1(=O)=O (single isomer, unassigned; (-)) [Example 145, (−)-2-(5-(6-fluoro-1H-indol-3-yl)-3-methyl-1,1-dioxidobenzo[d]isothiazol-2(3H)-yl)-N-methylpropanamide]
54 | CNC(=O)C(C)N1C(C)c2cc(-c3c[nH]c4cc(F)ccc34)ccc2S1(=O)=O (single isomer, unassigned; (+)) [Example 146, (+)-2-(5-(6-fluoro-1H-indol-3-yl)-3-methyl-1,1-dioxidobenzo[d]isothiazol-2(3H)-yl)-N-methylpropanamide]
70 | CC1c2cc(-c3c[nH]c4cc(F)ccc34)ccc2S(=O)(=O)N1CCS(C)(=O)=O (single isomer, unassigned; (+)) [Example 53, (+)-5-(6-fluoro-1H-indol-3-yl)-3-methyl-2-(2-(methylsulfonyl)ethyl)-2,3-dihydrobenzo[d]isothiazole 1,1-dioxide]
103 | O=S1(=O)c2ccc(-c3c[nH]c4cc(F)ccc34)cc2CN1C[C@H](O)CO [Example 34, (S)-2-(2,3-dihydroxypropyl)-5-(6-fluoro-1H-indol-3-yl)-2,3-dihydrobenzo[d]isothiazole 1,1-dioxide]
43 | O=S1(=O)NC(CO)c2cc(-c3c[nH]c4cc(F)ccc34)ccc21 (single isomer, unassigned; (+)) [Example 13, (+)-5-(6-fluoro-1H-indol-3-yl)-3-(hydroxymethyl)-2,3-dihydrobenzo[d]isothiazole 1,1-dioxide]
59 | CNC(=O)C(C)N1C(C)c2cc(-c3c[nH]c4cc(F)ccc34)ccc2S1(=O)=O (single isomer, unassigned) [Example 147, 2-(5-(6-fluoro-1H-indol-3-yl)-3-methyl-1,1-dioxidobenzo[d]isothiazol-2(3H)-yl)-N-methylpropanamide]
114 | CNC(=O)C(N)CN1C(C)c2cc(-c3c[nH]c4cc(F)ccc34)ccc2S1(=O)=O (single isomer, unassigned; (+)) [Example 102, (+)-2-amino-3-(5-(6-fluoro-1H-indol-3-yl)-3-methyl-1,1-dioxidobenzo[d]isothiazol-2(3H)-yl)-N-methylpropanamide]
68 | CC1c2cc(-c3c[nH]c4cc(F)ccc34)ccc2S(=O)(=O)N1CC1(C)COC(=O)N1 (single isomer, unassigned; (-)) [Example 88, (−)-4-((5-(6-fluoro-1H-indol-3-yl)-3-methyl-1,1-dioxidobenzo[d]isothiazol-2(3H)-yl)methyl)-4-methyloxazolidin-2-one]
81 | O=S1(=O)c2ccc(-c3c[nH]c4cc(F)ccc34)cc2C(CO)N1CCO (single isomer, unassigned; (-)) [Example 132, (−)-5-(6-fluoro-1H-indol-3-yl)-2-(2-hydroxyethyl)-3-(hydroxymethyl)-2,3-dihydrobenzo[d]isothiazole 1,1-dioxide]
97 | CC1c2cc(-c3c[nH]c4cc(F)ccc34)ccc2S(=O)(=O)N1Cc1ncn(C)n1 (single isomer, unassigned; (+)) [Example 86, (+)-5-(6-fluoro-1H-indol-3-yl)-3-methyl-2-((1-methyl-1H-1,2,4-triazol-3-yl)methyl)-2,3-dihydrobenzo[d]isothiazole 1,1-dioxide]
30 | CC1c2cc(-c3c[nH]c4cc(F)ccc34)ccc2S(=O)(=O)N1C[C@H](O)CO (single isomer, unassigned; (+)) [Example 96]
